According to ChEMBL document CHEMBL5257125, “Discovery of pyrido[4,3-d]pyrimidinone derivatives as novel Wee1 inhibitors” (Bioorg Med Chem, 2023):

Key:
MV4-11 = test: Antiproliferative activity against human MV4-11 cells incubated for 72 hrs by Celltiter-glo assay; format: functional, cell-based; conditions: MV4-11, 72 h
Wee1-like protein kinase = Wee1-like protein kinase (Homo sapiens, UniProt P30291); test: Inhibition of recombinant human Wee1 (214 to end residues) incubated for 1 hr in presence of tracer 178 by fluorescence based assay
Chain of Wee1-like protein kinase (P30291 whole entry): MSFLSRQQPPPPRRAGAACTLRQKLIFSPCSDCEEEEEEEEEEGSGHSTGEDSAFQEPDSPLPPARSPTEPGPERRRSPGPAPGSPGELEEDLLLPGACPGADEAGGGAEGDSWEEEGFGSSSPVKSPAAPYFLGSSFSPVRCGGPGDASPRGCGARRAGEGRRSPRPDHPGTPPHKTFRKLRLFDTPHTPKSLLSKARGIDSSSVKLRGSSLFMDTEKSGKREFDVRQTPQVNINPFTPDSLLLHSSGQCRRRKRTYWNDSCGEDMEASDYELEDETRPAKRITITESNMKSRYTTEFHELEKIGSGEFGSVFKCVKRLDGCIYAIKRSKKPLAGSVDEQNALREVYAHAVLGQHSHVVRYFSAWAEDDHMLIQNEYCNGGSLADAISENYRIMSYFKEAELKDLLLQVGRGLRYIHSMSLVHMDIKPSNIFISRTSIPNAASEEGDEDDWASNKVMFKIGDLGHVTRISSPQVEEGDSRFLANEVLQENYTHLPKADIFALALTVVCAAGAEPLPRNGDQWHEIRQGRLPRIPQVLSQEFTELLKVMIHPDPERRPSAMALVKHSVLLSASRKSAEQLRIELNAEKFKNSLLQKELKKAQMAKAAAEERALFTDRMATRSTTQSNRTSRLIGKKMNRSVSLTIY

T47D = test: Antiproliferative activity against human T47D cells incubated for 72 hrs by Celltiter-glo assay; format: functional, cell-based
[1] = Metabolic stability in mouse liver microsomes assessed as parent compound remaining preincubated with NADPH for 5 mins followed by compound addition and measured upto 90 mins by LC-MS/MS analysis; format: ADME, Microsome; conditions: read-out: Stability

Row | SMILES | IC50 (MV4-11) | IC50 (Wee1-like protein kinase) | IC50 (T47D) | remaining at 1.5 h [1]
1 | CN(C)CCOc1ccc(Nc2cc3ncn(-c4c(Cl)cccc4Cl)c(=O)c3cn2)cc1 | 1.22 µM | 0.052 µM | 10.5 µM | –
2 | CN1CCN(Cc2ccc(Nc3cc4ncn(-c5c(Cl)cccc5Cl)c(=O)c4cn3)cc2)CC1 | – | 0.124 µM | – | –
3 | N[C@H]1CCN(c2ccc(Nc3cc4ncn(-c5c(Cl)cccc5Cl)c(=O)c4cn3)cc2)C1 | 1.01 µM | 0.04 µM | 5.03 µM | –
4 | CN1CCN(c2ccc(Nc3cc4ncn(-c5c(Cl)cccc5Cl)c(=O)c4cn3)nc2)CC1 | 1.07 µM | 0.018 µM | 6.39 µM | –
5 | O=c1c2cnc(Nc3ccc(N4CCC(O)CC4)cc3)cc2ncn1-c1c(Cl)cccc1Cl | – | 0.096 µM | – | –
6 | C[C@@H]1CN(c2ccc(Nc3cc4ncn(-c5c(Cl)cccc5Cl)c(=O)c4cn3)cc2CO)C[C@H](C)N1 | 0.791 µM | 0.023 µM | 3.23 µM | > 50%
7 | O=c1c2cnc(Nc3ccc(N[C@@H]4CN5CCC4CC5)cc3)cc2ncn1-c1c(Cl)cccc1Cl | – | 0.201 µM | – | –
8 | CN1CCC(Nc2ccc(Nc3cc4ncn(-c5c(Cl)cccc5Cl)c(=O)c4cn3)cc2)CC1 | 1.76 µM | 0.035 µM | 19.2 µM | –
9 | C[C@@H]1CN(c2ccc(Nc3cc4ncn(-c5c(Cl)cccc5Cl)c(=O)c4cn3)cc2C(F)(F)F)C[C@H](C)N1 | – | 0.192 µM | – | –
10 | C[C@@H]1CN(c2ccc(Nc3cc4ncn(-c5c(Cl)cccc5Cl)c(=O)c4cn3)cc2C#N)C[C@H](C)N1 | – | 0.163 µM | – | –
11 | N[C@@H]1CCN(c2ccc(Nc3cc4ncn(-c5c(Cl)cccc5Cl)c(=O)c4cn3)cc2)C1 | – | 0.058 µM | – | –
12 | C[C@@H]1CN(c2ccc(Nc3cc4ncn(-c5c(Cl)cccc5Cl)c(=O)c4cn3)cc2CNC2CC2)C[C@H](C)N1 | – | 0.107 µM | – | –
13 | Cc1cccc(Cl)c1-n1cnc2cc(Nc3ccc(N4CCN(C)CC4)cc3)ncc2c1=O | – | 0.078 µM | – | –
14 | CN(C)CCCN(C)c1ccc(Nc2cc3ncn(-c4c(Cl)cccc4Cl)c(=O)c3cn2)cc1 | – | 0.142 µM | – | –
15 | O=c1c2cnc(Nc3ccc(N4CCC(CO)CC4)cc3)cc2ncn1-c1c(Cl)cccc1Cl | – | 0.515 µM | – | –
16 | CC(=O)N1CCN(c2ccc(Nc3cc4ncn(-c5c(Cl)cccc5Cl)c(=O)c4cn3)cc2)CC1 | – | 0.294 µM | – | –
17 | C=CCn1c(=O)c2cnc(Nc3ccc(N4CCN(C)CC4)cc3)nc2n1-c1cccc(C(C)(C)O)n1 [ADAVOSERTIB] | 0.095 µM | – | 12.8 µM | –
18 | CN(C)CCN(C)c1ccc(Nc2cc3ncn(-c4c(Cl)cccc4Cl)c(=O)c3cn2)cc1 | 0.66 µM | 0.07 µM | 9.6 µM | 60%
19 | CN1CCC(Oc2ccc(Nc3cc4ncn(-c5c(Cl)cccc5Cl)c(=O)c4cn3)cc2)CC1 | – | 0.093 µM | – | –
20 | NC1CCN(c2ccc(Nc3cc4ncn(-c5c(Cl)cccc5Cl)c(=O)c4cn3)cc2)CC1 | 2.69 µM | 0.065 µM | 18.8 µM | –
